Experimental data taken from ChEMBL document CHEMBL5357005, “Discovery and Heterologous Production of Tetrapetalones Provide Insights into the Formation of the Tetracyclic System” (J Nat Prod, 2024).
The source made the active and inactive calls.

How the values were obtained:
Staphylococcus aureus = assay: Antimicrobial activity against Staphylococcus aureus ATCC 25923 assessed as reduction in microbial growth measured for 24 hrs by paper disc diffusion method; assay type: functional, organism-based
Salmonella typhimurium = assay: Antimicrobial activity against Salmonella enterica subsp. enterica serovar Typhimurium assessed as reduction in microbial growth measured for 24 hrs by paper disc diffusion method; assay type: functional, organism-based
SW480 = assay: Cytotoxicity against human SW480 cells assessed as reduction in cell viability at 50 uM by sulfonyl rhodamine B colorimetry analysis; assay type: functional, cell-based
Candida albicans = assay: Antifungal activity against Candida albicans 5314 assessed as reduction in microbial growth measured for 48 hrs by paper disc diffusion method; assay type: functional, organism-based
Pseudomonas aeruginosa = assay: Antimicrobial activity against Pseudomonas aeruginosa PA01 assessed as reduction in microbial growth measured for 24 hrs by paper disc diffusion method; assay type: functional, organism-based
HCT-116 = assay: Cytotoxicity against human HCT-116 cells assessed as reduction in cell viability at 50 uM by sulfonyl rhodamine B colorimetry analysis; assay type: functional, cell-based

Measured: Activity

CC1=C[C@@]2(C)C(O)=C(C)C(=O)N2C2=CC(=O)C=C3[C@@H](O)[C@H](C)[C@@H]1[C@]32O
inactive: Staphylococcus aureus | Salmonella typhimurium | SW480 | Candida albicans | Pseudomonas aeruginosa | HCT-116

CC[C@@]12C=C(C)[C@@H]3[C@@H](C)[C@H](O[C@@H]4CC[C@H](O)[C@H](C)O4)C4=CC(=O)C=C(N1C(=O)C(C)=C2O)[C@@]43O
inactive: Staphylococcus aureus | Salmonella typhimurium | SW480 | Candida albicans | Pseudomonas aeruginosa | HCT-116

CC1=C[C@@]2(C)C(O)=C(C)C(=O)N2C2=CC(=O)C=C3[C@@H](O[C@H]4O[C@H](C)[C@@H](O)[C@H](O)[C@@H]4O)[C@H](C)[C@@H]1[C@]32O
inactive: Staphylococcus aureus | Salmonella typhimurium | SW480 | Candida albicans | Pseudomonas aeruginosa | HCT-116

CC1=C[C@H]2C(O)=C(C)C(=O)N2C2=CC(=O)C=C3[C@@H](O[C@@H]4CC[C@H](O)[C@H](C)O4)[C@H](C)[C@@H]1[C@]32O
inactive: Staphylococcus aureus | Salmonella typhimurium | SW480 | Candida albicans | Pseudomonas aeruginosa | HCT-116

CC[C@@]12C=C(C)[C@@H]3[C@@H](C)[C@H](O[C@H]4O[C@H](C)[C@@H](O)[C@H](O)[C@@H]4O)C4=CC(=O)C=C(N1C(=O)C(C)=C2O)[C@@]43O
inactive: Staphylococcus aureus | Salmonella typhimurium | SW480 | Candida albicans | Pseudomonas aeruginosa | HCT-116

CC[C@@]12C=C(C)[C@@H]3[C@@H](C)[C@H](O)C4=CC(=O)C=C(N1C(=O)C(C)=C2O)[C@@]43O
inactive: Staphylococcus aureus | Salmonella typhimurium | SW480 | Candida albicans | Pseudomonas aeruginosa | HCT-116

CC1=C[C@@]2(C)C(O)=C(C)C(=O)N2C2=CC(=O)C=C3[C@@H](O[C@@H]4CC[C@H](O)[C@H](C)O4)[C@H](C)[C@@H]1[C@]32O
inactive: Staphylococcus aureus | Salmonella typhimurium | SW480 | Candida albicans | Pseudomonas aeruginosa | HCT-116

CC1=C[C@@]2(CO)C(O)=C(C)C(=O)N2C2=CC(=O)C=C3[C@@H](O[C@@H]4CC[C@H](O)[C@H](C)O4)[C@H](C)[C@@H]1[C@]32O
inactive: Staphylococcus aureus | Salmonella typhimurium | SW480 | Candida albicans | Pseudomonas aeruginosa | HCT-116
